Experimental data: patent US20100022517A1, “OPHTHALMIC FORMULATION OF RHO KINASE INHIBITOR COMPOUND” (priority 2006, published 2010)
Converted amounts (≈) assume the structure as drawn. Read-outs that look alike come from different tables or passages of the source. Blank lines part the entries; values can stand above or below the compound they belong to.

How the values were obtained:
[1] = Impact of pH on solubility, buffered cosolvent system (plON pSOL Evolution); type: physicochemical; conditions: for solubility: buffered cosolvent system
Experimental: Solubility was determined within a target pH range of 4.0-9.0 using a buffered cosolvent system (plON pSOL Evolution).

[2] = Ocular comfort composite behaviour score after ocular instillation; type: in vivo, rabbit
Experimental: Dose Formulation and Administration.
Formulation A: 10 mM phosphate, 1% polysorbate 80, 0.85% NaCl, 0.02% BAC, 0.2% EDTA pH 7.0.
Formulation B: 10 mM phosphate, 1% polysorbate 80, 2.36% Glycerol, 0.02% BAC, 0.2% EDTA pH 7.1.
Formulation C: 10 mM phosphate, 1% polysorbate 80, 2.36% Glycerol, 0.02% BAC, 0.2% EDTA, 0.5% hydroxypropyl methyl cellulose, pH 7.1.
Formulation D: 10 mM phosphate, 1% polysorbate 80, 2.36% Glycerol, 0.02% BAC, 0.2% EDTA, 1% 1,2 dimyristoyl-sn-glycero-3-phosphocholine, pH 7.1.
Pharmacodynamic Analysis. Formulations A-D were administered as two 30 μl drops to the right eye of each rabbit within a dosing group. The rabbits were evaluated for 15 minutes after ocular instillation and their changes in behavior were recorded. […] The higher the score, the more discomfort an animal is. A mean±SE was generated for each group.

[3] = Accelerated stability of Compound A formulation at 60° C., HPLC with UV detection; type: physicochemical; conditions: increase in pH from 5.3 to 6.3 and 7.3, 0.9% saline, 0.1% EDTA, 0.01% benzalkonium chloride, 0.8% polysorbate 80
From the text: Compound A was formulated in a 0.9% saline solution containing 0.1% EDTA, 0.01% Benzalkonium Chloride and 0.8% Polysorbate 80 at three levels of pH; 5.3, 6.3 and 7.3.

[4] = Effect of formulation pH on ocular surface, aqueous humor and systemic bioavailability after topical ocular dosing; type: in vivo
Experimental: Dose Formulation and Administration. Compound A was formulated at 0.12% w/v (the equivalent millimolar concentration is 3 mM) in 10 mM phosphate, 0.8% polysorbate 80, 0.85% NaCl, 0.01% BAC, 0.1% EDTA at three different pH's, 5.3, 6.3 and 7.3, Compound A was administered as a 30 μl drop to both eyes of each animal within a dosing group and the influence of pH on ocular and systemic exposure was examined.
Study sampling. Plasma, aqueous humor, and ocular samples were obtained from 2 animals (4 eyes) per dosing group at times of 0.25, 0.5, 1, and 2 hours post dosing.
Aqueous humor is the fluid within the anterior chamber of the eye and has the closest correlation to the concentration at the site of action, the trabecular meshwork. Cmax indicates the peak concentration of drug found within aqueous humor. AUC indicates total concentration of the drug within the aqueous humor over time.
Plasma concentration analysis indicates systemic exposure. Systemic exposure is the exposure of the drug to the entire body. Cmax and AUC describe the peak concentration and total concentration of the drug over time, respectively, for Compound A in plasma.
40 μL of saline was applied to the eyes at 0.25 h, 0.5 h, 1 h, and 2 h after administration of Compound A, and the lavage fluids were collected as samples. Ocular surface relates to the surface of the cornea and conjunctiva. Ocular surface residence time is the average time Compound A resides on the ocular surface.

[5] = Solubility of Compound A at target pH 7.3 in 0.85% NaCl vehicle with surfactant or chelating agent, filtered, UV analysis; type: physicochemical; conditions: for Concentration Compound A: 20 mM prepared
From the text: Concentrations of the surfactant used were at the maximum allowable concentration for excipients Generally Regarded As Safe (GRAS).

[6] = […] w/v, 30 μl drop to both eyes, increasing pH 5.3, 6.3, 7.3

solubility ([1]; pH 5.6, read-out: maximum solubility): 5000 µg/mL (≈ 12.1 mM)
Avg. Sol ([1]; pH 5.6): 5001 µg/mL
Avg. Sol ([1]; pH 7.2): 948 µg/mL
Avg. Sol ([1]; pH 8.5): 282 µg/mL
Compound: CCS(=O)(=O)Nc1cccc(CN2CCC[C@@H](Nc3ccc4[nH]ncc4c3)C2)c1 [Compound 1.123, (R)-N-(3-((3-(1H-indazol-5-ylamino)piperidin-1-yl)methyl)phenyl)ethanesulfonamide]

ocular comfort score ([2]; 0.16% w/v, two 30 μl drops, right eye, addition of 1% 1,2 dimyristoyl-sn-glycero-3-phosphocholine (Formulation D)): increased ocular discomfort
ocular comfort score ([2]; increasing concentrations 0.03%, 0.1%, 0.32% w/v in formulation A): increased ocular discomfort
stability (percent of Compound A remaining) [3]: decrease in stability
ocular surface concentration ([4]; 0.25 h, between pH 5.3 and 6.3): increased only slightly
ocular surface concentration ([4]; 0.25 h, from pH 6.3 to 7.3): no change
plasma concentration (Cmax and AUC), systemic exposure [4, 6]: no effect on the plasma concentration
ocular surface residence time ([4]; […] w/v, pH increased from 5.3, 6.3 to 7.3, over 2 hours): increase in residence time
ocular surface concentration ([4]; between 1 and 2 hours, pH 7.3): remained consistent
Concentration Compound A ([5]; EDTA 0.3%, pH of solution 7.39, 0.85% NaCl): 1380 µg/mL
Concentration Compound A ([5]; HCO-40 (hydrogenated castor oil) 0.5%, pH of solution 7.39, 0.85% NaCl): 2540 µg/mL
Concentration Compound A ([5]; Poloxamer 188 0.1%, pH of solution 7.30, 0.85% NaCl): 1490 µg/mL
Concentration Compound A ([5]; Poloxamer 407 0.16%, pH of solution 7.28, 0.85% NaCl): 6020 µg/mL
Concentration Compound A ([5]; Polysorbate 80 1%, pH of solution 7.49, 0.85% NaCl): 3850 µg/mL
solubility of Compound A among the surfactant formulations ([5]; formulations containing polysorbate 80 and poloxamer 407, target pH 7.3): highest solubility
solubility ([1]; pH 4-5.8, read-out: solubility): > 20000 µg/mL
Avg. Sol ([1]; pH 4.0): >20000 µg/mL
Avg. Sol ([1]; pH 5.8): >20000 µg/mL
Avg. Sol ([1]; pH 7.7): 2312 µg/mL
Compound: OCCOc1cccc(CN2CC[C@@H](Nc3cccc4cnccc34)C2)c1 [Compound 2.039, (R)-2-(3-((3-(isoquinolin-5-ylamino)pyrrolidin-1-yl)methyl)phenoxy)ethanol]
ocular comfort score ([2]; lower concentrations 0.03 and 0.1% w/v in formulation A, versus ALPHAGAN, RESTASIS, pilocarpine, LUMIGAN): comparable to those of the approved glaucoma medications
aqueous humor exposure (Cmax and AUC) [4, 6]: enhances the exposure within the aqueous humor
